Assay [1] concerns the target T1, Acetylcholinesterase (Homo sapiens, UniProt P22303). In words: Inhibition of AChE (unknown origin).
Assay [2] concerns the target Cholinesterase (Canis lupus familiaris, UniProt P32750). The assay is described as follows: Inhibition of dog serum BChE using butrylthiocholine iodide as substrate by spectrophotometry based Ellman's method.
Assay [3] deals with Acetylcholinesterase (Electrophorus electricus, UniProt O42275). The assay is described as follows: Inhibition of Electric eel AChE using […] as substrate by spectrophotometry based Ellman's method. (In general: DTNB colorimetry detects thiols as they appear.)
Sequence of Acetylcholinesterase (Electrophorus electricus, UniProt O42275) (O42275 whole entry): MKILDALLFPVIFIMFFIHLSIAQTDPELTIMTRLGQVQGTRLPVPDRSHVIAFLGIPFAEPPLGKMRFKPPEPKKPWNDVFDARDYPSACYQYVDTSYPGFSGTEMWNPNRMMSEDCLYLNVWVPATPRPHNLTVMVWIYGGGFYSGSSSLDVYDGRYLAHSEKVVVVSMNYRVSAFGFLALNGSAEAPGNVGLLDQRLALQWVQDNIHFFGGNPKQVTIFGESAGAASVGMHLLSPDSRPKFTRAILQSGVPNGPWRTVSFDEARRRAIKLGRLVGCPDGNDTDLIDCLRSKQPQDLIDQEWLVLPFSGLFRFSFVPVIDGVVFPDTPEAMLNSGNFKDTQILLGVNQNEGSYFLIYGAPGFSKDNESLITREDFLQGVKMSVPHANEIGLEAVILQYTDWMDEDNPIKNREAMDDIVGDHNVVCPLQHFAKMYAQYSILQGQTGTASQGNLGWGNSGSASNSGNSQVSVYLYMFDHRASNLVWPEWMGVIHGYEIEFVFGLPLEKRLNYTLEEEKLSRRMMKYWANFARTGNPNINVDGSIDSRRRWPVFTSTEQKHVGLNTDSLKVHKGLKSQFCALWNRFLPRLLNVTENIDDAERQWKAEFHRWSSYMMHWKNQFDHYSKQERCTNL
Assay [4] can be described thus: Selectivity index, ratio of IC50 for dog serum BChE to IC50 for Electric eel AChE.
Assay [5] has as its target T1, Acetylcholinesterase. The assay is described as follows: Inhibition of AChE (unknown origin) using […] as substrate incubated for 15 mins by Ellman's method.
Assay [6] has as its target Acetylcholinesterase (Electrophorus electricus) (UniProt O42275). In words: Competitive inhibition of Electric eel AChE using […] as substrate by spectrophotometry based Lineweaver-Burk plot analysis.

The values below come from ChEMBL document CHEMBL4627271, “Design, synthesis and evaluation of new 4-arylthiazole-2-amine derivatives as acetylcholinesterase inhibitors” (Bioorg Med Chem Lett, 2020).

Activity calls are given as the source filed them. The rule behind the calls is not given here. A value given as a limit tells only on which side of the number the result lay.

Sequence of Cholinesterase (P32750 whole entry): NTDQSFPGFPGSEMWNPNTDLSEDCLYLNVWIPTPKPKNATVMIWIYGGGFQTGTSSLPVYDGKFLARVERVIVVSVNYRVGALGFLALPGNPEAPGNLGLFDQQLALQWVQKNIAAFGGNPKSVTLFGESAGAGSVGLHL
T1 sequence (P22303 whole entry): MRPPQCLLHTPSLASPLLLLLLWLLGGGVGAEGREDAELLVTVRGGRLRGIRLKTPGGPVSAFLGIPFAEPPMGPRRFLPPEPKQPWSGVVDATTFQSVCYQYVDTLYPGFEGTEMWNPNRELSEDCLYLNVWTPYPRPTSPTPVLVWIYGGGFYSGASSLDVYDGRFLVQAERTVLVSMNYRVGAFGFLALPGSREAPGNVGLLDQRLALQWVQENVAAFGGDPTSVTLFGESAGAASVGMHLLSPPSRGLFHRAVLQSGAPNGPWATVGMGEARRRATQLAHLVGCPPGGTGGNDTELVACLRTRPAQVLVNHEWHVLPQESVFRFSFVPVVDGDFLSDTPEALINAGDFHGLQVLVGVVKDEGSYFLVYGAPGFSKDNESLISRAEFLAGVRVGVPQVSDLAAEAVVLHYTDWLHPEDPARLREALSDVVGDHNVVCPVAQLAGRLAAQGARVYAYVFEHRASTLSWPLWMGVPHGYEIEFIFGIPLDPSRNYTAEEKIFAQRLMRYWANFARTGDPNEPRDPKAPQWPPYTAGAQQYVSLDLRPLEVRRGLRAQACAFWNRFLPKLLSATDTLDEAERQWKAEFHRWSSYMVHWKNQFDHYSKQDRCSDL
Sequence of Acetylcholinesterase (Electrophorus electricus) (O42275 24-633 limits assumed): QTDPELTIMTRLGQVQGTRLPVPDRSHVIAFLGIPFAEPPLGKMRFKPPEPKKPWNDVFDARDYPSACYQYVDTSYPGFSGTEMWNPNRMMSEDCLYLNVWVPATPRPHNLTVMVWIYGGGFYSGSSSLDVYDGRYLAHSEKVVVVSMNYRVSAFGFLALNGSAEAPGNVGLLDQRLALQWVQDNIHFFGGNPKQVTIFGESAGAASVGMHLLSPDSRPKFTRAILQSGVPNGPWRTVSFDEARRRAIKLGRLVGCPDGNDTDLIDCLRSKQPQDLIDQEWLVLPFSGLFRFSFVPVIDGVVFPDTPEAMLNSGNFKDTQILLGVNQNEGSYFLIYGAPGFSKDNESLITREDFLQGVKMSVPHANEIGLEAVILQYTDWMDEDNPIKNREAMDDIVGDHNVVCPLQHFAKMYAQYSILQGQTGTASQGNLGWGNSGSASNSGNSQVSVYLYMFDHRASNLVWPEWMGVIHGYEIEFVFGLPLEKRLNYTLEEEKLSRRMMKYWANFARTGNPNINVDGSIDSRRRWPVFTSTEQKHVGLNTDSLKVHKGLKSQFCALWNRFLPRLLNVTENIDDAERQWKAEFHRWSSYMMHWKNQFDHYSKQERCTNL

Regarding `COc1ccc(-c2csc(NC(=O)CCN3CCCC3)n2)cc1`, in assay [1], the IC50 – broadly, the point on the concentration scale where inhibition reaches its midpoint – was determined as 0.51 µM. On to `C/C=C1\[C@H]2C=C(C)C[C@]1(N)c1ccc(=O)[nH]c1C2` [HUPERZINE A], for which the IC50 in assay [2] was more than 10000 µM. Take `COc1ccc(CC(=O)Nc2ncc(-c3ccc(OCCCCN4CCCCC4)cc3)s2)cc1OC`: the 50% inhibitory concentration (IC50) was 49.2 µM in assay [2] and 0.95 µM in assay [3]. Further, in assay [4], the Ratio IC50 was 52. Regarding `COc1ccc(CC(=O)Nc2ncc(-c3ccc(OCCCCCN4CCCC4)cc3)s2)cc1OC`, the values for the IC50 in assay [2] and in assay [3] were 9.85 µM and 3.34 µM, respectively. The like results for `COc1ccc(CC(=O)Nc2ncc(-c3ccc(OCCCN4CCCC4)cc3)s2)cc1` were, in that order, 9.01 µM and 37.3 µM.

Consider `COc1ccc(CC(=O)Nc2ncc(-c3ccc(OCCCCNC4CCN(Cc5ccccc5)CC4)cc3)s2)cc1OC`, for which the results for the concentration for half-maximal inhibition (IC50) in assay [2] and in assay [3] were 7.23 µM and 4.24 µM, respectively. With `COc1ccc(CCC(=O)Nc2nc(-c3cc4ccccc4oc3=O)cs2)cc1OC`, the IC50 in assay [5] is 0.74 µM. As for `CCN(C)C(=O)Oc1cccc([C@H](C)N(C)C)c1` [RIVASTIGMINE], the IC50 in assay [2] worked out at 6.27 µM.

In the case of `COc1ccc(C(=O)Nc2ncc(-c3ccc(OCCCN4CCCC4)cc3)s2)cc1OC`, the IC50 was 8.1 µM in assay [2] and 39.3 µM in assay [3]. For `COc1ccc(CC(=O)Nc2ncc(-c3ccc(OCCCCSc4ccncc4)cc3)s2)cc1OC`, the IC50 in assay [2] stood at 14.3 µM; in assay [3], 5.5 µM. With `COc1ccc(CC(=O)Nc2ncc(-c3ccc(OCCCN4CCCC4)cc3)s2)cc1OC`, the IC50 in assay [2] worked out at 6.89 µM; in assay [3], 6.51 µM. In the case of `COc1ccc(CC(=O)Nc2ncc(-c3ccc(OCCN4CCCC4)cc3)s2)cc1OC`, the IC50 in assay [2] came to 23.9 µM; in assay [3] it was 6.31 µM.

As for `COc1ccc(CC(=O)Nc2ncc(-c3ccc(OCCCCN4CCN(Cc5ccccc5)CC4)cc3)s2)cc1OC`, the IC50 in assay [2] was determined as 41 µM; in assay [3], 5.75 µM. Turning to `COc1ccc(CC(=O)Nc2ncc(-c3ccc(OCCCCN4CCCC4)cc3)s2)cc1OC`, the IC50 is 10.2 µM in assay [2] and 0.66 µM in assay [3]. Also, in assay [4], the Ratio IC50 is 16. For the same compound, in assay [6], the inhibition result is “Active”. With `COc1cc(CC(=O)Nc2ncc(-c3ccc(OCCCN4CCCC4)cc3)s2)cc(OC)c1OC`, the values for the IC50 in assay [2] and in assay [3] were 17.3 µM and 7.84 µM, respectively.
